The results in this text go back to ChEMBL document CHEMBL1150926, “A new meroditerpenoid dimer from an undescribed Philippine marine sponge of the genus Strongylophora” (J Nat Prod, 1998).

The nature of series [1]: Toxicity against Artemia salina assessed as mortality after 48 hrs. Type of series: organism-based. The settings on record: in vivo.
For series [2], the system named is Cladosporium cucumerinum. Description: Antifungal activity against Cladosporium cucumerinum at 0.80 umol after 2 days. Type of series: functional.
The test system of series [3] is Cladosporium cucumerinum. Description: Antifungal activity against Cladosporium cucumerinum at 0.10 umol after 2 days. The series is classed as functional.
For series [4], the system named is Spodoptera littoralis. Description: Insecticidal activity against Spodoptera littoralis larvae assessed as inhibition of larval growth at 530 ppm treated in artificial diet after 6 days. The series is classed as functional. Also noted: scale not given: the % may be the effect or the level left.
Series [5] concerns Spodoptera littoralis. The experiment in a line: Insecticidal activity against Spodoptera littoralis larvae assessed as inhibition of larval growth treated in artificial diet after 6 days. The series is classed as functional, organism-based.
The test system of another series is Micrococcus luteus. The experiment in a line: Antibacterial activity against Micrococcus luteus at 100 ug/disk after 24 hrs by agar plate diffusion method. The series is classed as functional.
The next series concerns Salmonella typhi. Description: Antibacterial activity against Salmonella typhii at 100 ug/disk after 24 hrs by agar plate diffusion method. Type of series: functional, Salmonella enterica subsp. enterica serovar Typhi.
For another series, the system named is Bacillus subtilis. The experiment in a line: Antibacterial activity against Bacillus subtilis 168 at 100 ug/disk after 24 hrs by agar plate diffusion method. Type of series: functional, organism-based. Particulars: subsp. subtilis str. 168.
In a further series the test system is Staphylococcus aureus. Description: Antibacterial activity against Staphylococcus aureus ATCC 25923 at 100 ug/disk after 24 hrs by agar plate diffusion method. Type of series: functional, organism-based.
Another series deals with Escherichia coli. Description: Antibacterial activity against Escherichia coli ATCC 25922 at 100 ug/disk after 24 hrs by agar plate diffusion method. The series is classed as functional, organism-based.

In brackets after ≈: the same amount, converted by molar mass. Activity calls are given as the source filed them. The calls are words filed in the database; no cut-off is given here.

The LC50 is the concentration that kills 50% of the test population. In the case of `C[C@]12CC[C@H]3[C@@](C)(CCC[C@@]3(C)C(=O)O)[C@@H]1CC[C@@]1(C)Oc3c(O)ccc(Oc4ccc5c(c4)C[C@H]4[C@]6(C)CC[C@@H]7[C@](C)(CCC[C@]7(C)C(=O)O)[C@H]6CC[C@]4(C)O5)c3C[C@H]21` [DISTRONGYLOPHORINE], in series [1], the LC50 at 48 h worked out at 10.5 µg/mL (≈ 12.8 µM). Besides, the outcome in the series with Cladosporium cucumerinum [2] and in the series with Cladosporium cucumerinum [3] was inactive.

For `C[C@]12CCC[C@](C)(C(=O)O)[C@@H]1CC[C@]1(C)[C@@H]2CC[C@]2(C)Oc3ccc(O)cc3C[C@@H]12` [Strongylophorin-3], the Activity with Spodoptera littoralis [4] is reported as 90%. Further, the EC50 in the series on Spodoptera littoralis [5] is on record as 69 ppm. Besides, the result with Micrococcus luteus, with Bacillus subtilis, with Staphylococcus aureus and with Escherichia coli was inactive. For the same molecule, the zone of inhibition at 100 µg/disc in the series with Salmonella typhi (Salmonella enterica, read-out: IZ) is 9 mm. For the same molecule, in [1], the LC50 at 48 h turned out to be 59.2 µg/mL (≈ 143 µM). Besides, the “inhibition zone (IZ)” value in the series on Cladosporium cucumerinum [2] was found to be 15 mm; in the series on Cladosporium cucumerinum [3], 10 mm.

`C[C@@]12CC[C@@H]3[C@]4(CCC[C@@]3(C)C(=O)OC4)[C@H]1CC[C@]1(C)Oc3ccc(O)cc3C[C@@H]21` [strongylophorine-2]: the zone of inhibition at 100 µg/disc with Micrococcus luteus (read-out: IZ) turned out to be 7 mm. The result with Salmonella typhi (Salmonella enterica subsp. enterica serovar Typhi), with Bacillus subtilis, in the series with Staphylococcus aureus, in the series on Escherichia coli, with Cladosporium cucumerinum [2] and in the series on Cladosporium cucumerinum [3] was inactive. Further, in series [1], the LC50 at 48 h was 534 µg/mL (≈ 1300 µM).

For `CC(=O)[C@@]1(C)CCC[C@]2(C)[C@H]3CC[C@]4(C)Oc5ccc(O)cc5C[C@H]4[C@]3(C)CC[C@H]21` [strongylophorine-4], the LC50 at 48 h in series [1] worked out at 143 µg/mL (≈ 349 µM). Besides, the outcome in the series with Cladosporium cucumerinum [2] and with Cladosporium cucumerinum [3] was inactive.
